Data: patent US11459339B2, “Biaryl derivative, preparation method thereof and pharmaceutical application thereof” (Abbisko Therapeutics Co., Ltd., priority 2018, dated 2022)

What was measured:
[1] = target: interaction between PD-1 and PD-L1 (Homo sapiens (Human), UniProt Q9NZQ7); assay: PD1-PDL1 HTRF binding activity test (Cisbio PD-1/PD-L1 binding assay kit); conditions: read-out: PD1-PDL1 HTRF Binding Activity IC50
[2] = target: interaction between PD-1 and PD-L1 expressed on cell surfaces (Homo sapiens (Human), UniProt Q9NZQ7); assay: Jurkat reporter gene cellular assay (Jurkat/NF-κB-luc/PD1 cells cocultured with Raji-PD-L1 cells, OKT-3 stimulation); format: cell-based; conditions: NF-κB-luc reporter activation fold, 6 hrs; read-out: Cell Activity EC50
In short: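 Jurkat cells stably expressing human PD-1 and NF-κB-luciferase were cocultured with Raji cells stably expressing human PD-L1 under OKT-3 stimulation, with compound present. Luminescence was read after 6 h.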

Sequence of interaction between PD-1 and PD-L1 (Q9NZQ7 19-238): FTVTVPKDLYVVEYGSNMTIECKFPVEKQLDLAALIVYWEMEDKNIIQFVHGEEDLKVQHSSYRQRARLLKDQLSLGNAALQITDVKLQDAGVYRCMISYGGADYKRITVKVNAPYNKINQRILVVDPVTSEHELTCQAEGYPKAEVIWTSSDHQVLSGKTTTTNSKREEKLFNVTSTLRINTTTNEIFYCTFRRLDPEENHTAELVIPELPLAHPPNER
Sequence of interaction between PD-1 and PD-L1 expressed on cell surfaces (Q9NZQ7 19-290): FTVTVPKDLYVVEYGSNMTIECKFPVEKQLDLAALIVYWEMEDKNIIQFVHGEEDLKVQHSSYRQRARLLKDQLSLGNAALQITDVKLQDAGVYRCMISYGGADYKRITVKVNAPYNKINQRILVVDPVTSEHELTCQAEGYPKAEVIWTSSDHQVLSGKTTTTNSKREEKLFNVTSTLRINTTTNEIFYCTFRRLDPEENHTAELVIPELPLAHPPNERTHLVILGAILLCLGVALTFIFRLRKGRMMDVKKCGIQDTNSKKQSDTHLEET

| Structure (SMILES) | IC50 [1] [nM] | EC50 [2] [nM] |
| --- | --- | --- |
| COc1cc(C(=O)Nc2cccc(-c3cccc(NC(=O)c4cc(OC)c(CNCCS(C)(=N)=O)cn4)c3C)c2C)ncc1CNCCS(C)(=N)=O (stereo not drawn) [Example 88, N,N'-(2,2′-dimethyl-[1,1′-biphenyl]-3,3′-diyl)bis(4-methoxy-5-(((2-(S-methylsulfonimidoyl)ethyl)amino)methyl)picolinamide)] | 0.41 | 182 |
| COc1cc(C(=O)Nc2cccc(-c3cccc(NC(=O)c4cc(OC)c(CNCCN=S(C)(C)=O)cn4)c3C)c2C)ncc1CNCCN=S(C)(C)=O [Example 89, N,N'-(2,2′-dimethyl-[1,1′-biphenyl]-3,3′-diyl)bis(5-(((2-((dimethyl(oxo)λ^6-sulfaneylidene)amino)ethyl)amino)methyl)-4-methoxypicolinamide)] | 0.87 | 427 |
| COc1cc(C(=O)Nc2cccc(-c3cccc(NC(=O)c4cc(OC)c(CNCCN=S5(=O)CCCC5)cn4)c3C)c2C)ncc1CNCCN=S1(=O)CCCC1 [Example 90, N,N'-(2,2′-dimethyl-[1,1′-biphenyl]-3,3′-diyl)bis(4-methoxy-5-(((2-((1-oxidotetrahydro-1λ^6-thiophen-1-ylidene)amino)ethyl)amino)methyl)picolinamide)] | 0.36 | 131 |
| Cc1c(NC(=O)c2cc(C3CC3)c(CNCCO)cn2)cccc1-c1cccc(NC(=O)c2cc(C3CC3)c(CNCCO)cn2)c1C [Example 91, N,N'-(2,2′-dimethyl-[1,1′-biphenyl]-3,3′-diyl)bis(4-cyclopropyl-5-(((2-hydroxyethyl)amino)methyl)picolinamide)] | 0.16 | 39 |
| Cc1c(NC(=O)c2cc(C3CC3)c(CNC(CO)CO)cn2)cccc1-c1cccc(NC(=O)c2cc(C3CC3)c(CNC(CO)CO)cn2)c1C [Example 92, N,N′-(2,2′-dimethyl-[1,1′-biphenyl]-3,3′-diyl)bis(4-cyclopropyl-5-(((1,3-dihydroxypropan-2-yl)amino)methyl)picolinamide)] | 0.87 | 54.7 |
| CC(=O)NCCNCc1cnc(C(=O)Nc2cccc(-c3cccc(NC(=O)c4cc(C5CC5)c(CNCCNC(C)=O)cn4)c3C)c2C)cc1C1CC1 [Example 93, N,N'-(2,2′-dimethyl-[1,1′-biphenyl]-3,3′-diyl)bis(5-(((2-acetamidoethyl)amino)methyl)-4-cyclopropylpicolinamide)] | 1.49 | 104 |
| Cc1c(NC(=O)c2cc(C3CC3)c(CNCC3(O)CC3)cn2)cccc1-c1cccc(NC(=O)c2cc(C3CC3)c(CNCC3(O)CC3)cn2)c1C [Example 94, N,N'-(2,2′-dimethyl-[1,1′-biphenyl]-3,3′-diyl)bis(4-cyclopropyl-5-((((1-hydroxycyclopropyl)methyl)amino)methyl)picolinamide)] | 4.75 | 566 |
| Cc1c(NC(=O)c2cc(C3CC3)c(CN[C@H](C)CO)cn2)cccc1-c1cccc(NC(=O)c2cc(C3CC3)c(CN[C@H](C)CO)cn2)c1C [Example 95, N,N'-(2,2′-dimethyl-[1,1′-biphenyl]-3,3′-diyl)bis(4-cyclopropyl-5-((((R)-1-hydroxypropan-2-yl)amino)methyl)picolinamide)] | 2.02 | 125 |
| Cc1c(NC(=O)c2cc(C3CC3)c(CN[C@@H](C)CO)cn2)cccc1-c1cccc(NC(=O)c2cc(C3CC3)c(CN[C@@H](C)CO)cn2)c1C [Example 96, N,N'-(2,2′-dimethyl-[1,1′-biphenyl]-3,3′-diyl)bis(4-cyclopropyl-5-((((S)-1-hydroxypropan-2-yl)amino)methyl)picolinamide)] | 1.44 | 87 |
| Cc1c(NC(=O)c2cc(C3CC3)c(CNC3CCC[C@@H]3O)cn2)cccc1-c1cccc(NC(=O)c2cc(C3CC3)c(CN[C@H]3CCC[C@@H]3O)cn2)c1C (stereo partly drawn) [Example 97] | 3.38 | 221 |
| Cc1c(NC(=O)c2cc(C3CC3)c(CN3CC(O)C3)cn2)cccc1-c1cccc(NC(=O)c2cc(C3CC3)c(CN3CC(O)C3)cn2)c1C [Example 98, N,N′-(2,2′-dimethyl-[1,1′-biphenyl]-3,3′-diyl)bis(4-cyclopropyl-5-((3-hydroxyazetidin-1-yl)methyl)picolinamide)] | 3.78 | 241 |
| Cc1c(NC(=O)c2cc(C3CC3)c(CN3CC(C)(O)C3)cn2)cccc1-c1cccc(NC(=O)c2cc(C3CC3)c(CN3CC(C)(O)C3)cn2)c1C [Example 99, N,N′-(2,2′-dimethyl-[1,1′-biphenyl]-3,3′-diyl)bis(4-cyclopropyl-5-((3-hydroxy-3-methylazetidin-1-yl)methyl)picolinamide)] | 1.43 | 260 |
| Cc1c(NC(=O)c2cc(C3CC3)c(CN3CC[C@@H](O)C3)cn2)cccc1-c1cccc(NC(=O)c2cc(C3CC3)c(CN3CC[C@@H](O)C3)cn2)c1C [Example 100] | 1.51 | 122 |
| Cc1c(NC(=O)c2cc(C3CC3)c(CN3CC[C@H](O)C3)cn2)cccc1-c1cccc(NC(=O)c2cc(C3CC3)c(CN3CC[C@H](O)C3)cn2)c1C [Example 101, N,N′-(2,2′-dimethyl-[1,1′-biphenyl]-3,3′-diyl)bis(4-cyclopropyl-5-(((S)-3-hydroxypyrrolidin-1-yl)methyl)picolinamide)] | 1.09 | 267 |
| Cc1c(NC(=O)c2cc(C3CC3)c(CN3CCC(O)CC3)cn2)cccc1-c1cccc(NC(=O)c2cc(C3CC3)c(CN3CCC(O)CC3)cn2)c1C [Example 102, N,N′-(2,2′-dimethyl-[1,1′-biphenyl]-3,3′-diyl)bis(4-cyclopropyl-5-((4-hydroxypiperidin-1-yl)methyl)picolinamide)] | 3.61 | 194 |
| Cc1c(NC(=O)c2cc(C3CC3)c(CNC3CC(O)C3)cn2)cccc1-c1cccc(NC(=O)c2cc(C3CC3)c(CN[C@H]3C[C@@H](O)C3)cn2)c1C (stereo partly drawn) [Example 103, N,N′-(2,2′-dimethyl-[1,1′-biphenyl]-3,3′-diyl)bis(4-cyclopropyl-5-((((1s,3s)-3-hydroxycyclobutyl)amino)methyl)picolinamide)] | 4.11 | 206 |
| Cc1c(NC(=O)c2cc(C3CC3)c(CN[C@H](CO)C(=O)O)cn2)cccc1-c1cccc(NC(=O)c2cc(C3CC3)c(CN[C@H](CO)C(=O)O)cn2)c1C [Example 105] | 0.27 | 14.1 |
| CCOC(=O)[C@@H](CO)NCc1cnc(C(=O)Nc2cccc(-c3cccc(NC(=O)c4cc(C5CC5)c(CN[C@H](CO)C(=O)OCC)cn4)c3C)c2C)cc1C1CC1 [Example 106, diethyl 2,2′-((((((2,2′-dimethyl-[1,1′-biphenyl]-3,3′-diyl)bis(azanediyl))bis (carbonyl))bis(4-cyclopropylpyridine-6,3-diyl))bis(methylene))bis(azanediyl)) (2R,2′R)-bis(3-hydroxypropanoate)] | 22.5 | 1260 |
| CCOC(=O)[C@H](CO)NCc1cnc(C(=O)Nc2cccc(-c3cccc(NC(=O)c4cc(C5CC5)c(CN[C@@H](CO)C(=O)OCC)cn4)c3C)c2C)cc1C1CC1 [Example 107, diethyl 2,2′-((((((2,2′-dimethyl-[1,1′-biphenyl]-3,3′-diyl)bis(azanediyl))bis(carbonyl))bis(4-cyclopropylpyridine-6,3-diyl))bis (methylene))bis(azanediyl))(2S,2′S)-bis (3-hydroxypropanoate)] | 15.2 | 753 |
| Cc1c(NC(=O)c2cc(C3CC3)c(CN[C@@H](CO)C(=O)O)cn2)cccc1-c1cccc(NC(=O)c2cc(C3CC3)c(CN[C@@H](CO)C(=O)O)cn2)c1C [Example 108, (2S,2′S)-2,2′-((((((2,2′-dimethyl-[1,1′-biphenyl]-3,3′-diyl)bis(azanediyl))bis(carbonyl))bis(4-cyclopropylpyridine-6,3-diyl))bis(methylene))bis(azanediyl)) bis(3-hydroxypropanoic acid)] | 0.84 | 42.3 |
| COC(=O)[C@@H]1CCCCN1Cc1cnc(C(=O)Nc2cccc(-c3cccc(NC(=O)c4cc(C5CC5)c(CN5CCCC[C@H]5C(=O)OC)cn4)c3C)c2C)cc1C1CC1 [Example 109, dimethyl 1,1′-(((((2,2′-dimethyl-[1,1′-biphenyl]-3,3′-diyl)bis(azanediyl))bis(carbonyl))bis(4-cyclopropylpyridine-6,3-diyl))bis(methylene))(2S,2′S)-bis (piperidine-2-carboxylate)] | 375 | > 10000 |
| Cc1c(NC(=O)c2cc(C3CC3)c(CN3CCCC[C@H]3C(=O)O)cn2)cccc1-c1cccc(NC(=O)c2cc(C3CC3)c(CN3CCCC[C@H]3C(=O)O)cn2)c1C [Example 110, (2S,2′S)-1,1′-(((((2,2′-dimethyl-[1,1′-biphenyl]-3,3′-diyl)bis(azanediyl))bis (carbonyl))bis(4-cyclopropylpyridine-6,3-diyl))bis(methylene))bis(piperidine-2-carboxylic acid)] | 0.67 | 51 |
| CCOC(=O)[C@@H](NCc1cnc(C(=O)Nc2cccc(-c3cccc(NC(=O)c4cc(C5CC5)c(CN[C@H](C(=O)OCC)[C@@H](C)O)cn4)c3C)c2C)cc1C1CC1)[C@@H](C)O [Example 111, diethyl 2,2′-((((((2,2′-dimethyl-[1,1′-biphenyl]-3,3′-diyl)bis (azanediyl))bis(carbonyl))bis (4-cyclopropylpyridine-6,3-diyl))bis(methylene))bis(azanediyl)) (2S,2′S,3R,3′R)-bis(3-hydroxybutanoate)] | 79.4 | 5950 |
| Cc1c(NC(=O)c2cc(C3CC3)c(CN[C@H](C(=O)O)[C@@H](C)O)cn2)cccc1-c1cccc(NC(=O)c2cc(C3CC3)c(CN[C@H](C(=O)O)[C@@H](C)O)cn2)c1C [Example 112, (2S,2′S,3R,3′R)-2,2′-((((((2,2′-dimethyl-[1,1′-biphenyl1]-3,3′-diyl)bis(azanediyl))bis(carbonyl))bis(4-cyclopropylpyridine-6,3-diyl))bis(methylene))bis(azanediyl))bis(3-hydroxybutanoic acid)] | 1.02 | 34.6 |
